# Settings: for log10 BCF / log10 biotransformation half-life (days): fish
Structure (SMILES),melting point [°C],boiling point [°C],also measured
OC[C@@H](O)[C@H]1O[C@@H]2O[C@H](C(Cl)(Cl)Cl)O[C@@H]2[C@H]1O,183,,
CC(=O)Nc1cc(NS(=O)(=O)C(F)(F)F)c(C)cc1C,184,,log10 Koc (L/kg): 2.3
COC1CCCCC1,-74.4,133,
CCCCCc1cc(O)c2c(c1)OC(C)(C)c1ccc(C)cc1-2,77,,ready biodegradability: readily biodegradable
C/C(=C/CC[C@@]1(C)C2C[C@@H]3[C@H](C2)C31C)CO,,302,
COc1cc(-c2ccc(N)c(OC)c2)ccc1N,137,356,ready biodegradability: not readily biodegradable
CCCC(Br)CC (stereo not given),,142,
C1CCC2CC2C1 (stereo not given),,116,log10 vapour pressure (mmHg): 1.36
N#Cc1ccc2ccccc2c1,66,306,
CC(=O)c1ccc(O)cc1C,128,313,
Cc1cccc(O)c1C(=O)O,173,,
COc1ccc(NC(C)=O)cc1Cl,,,log10 Koc (L/kg): 1.95
Cc1ccsc1C,-49,142,
CCCCNC(=O)OCC(C)(CCC)COC(N)=O (stereo not given),50,,
CC(Oc1ccc(Oc2ccc(Cl)cc2Cl)cc1)C(=O)O (stereo not given),120,,
Clc1cccc(-c2ccccc2Cl)c1,,,log10 Henry constant (atm·m³/mol): -3.6
CCCCN(CC)c1c([N+](=O)[O-])cc(C(F)(F)F)cc1[N+](=O)[O-],66,370,log10 Koc (L/kg): 4.03; log10 vapour pressure (mmHg): -4.19; ready biodegradability: not readily biodegradable
O=C(O)c1ccccc1C1c2ccc(O)cc2Oc2cc(O)ccc21,126,,
COc1ccc2[nH]cc(CCN(C)C)c2c1,69.5,,
C=CCCCCCCC=C,,167,
C=C(C)C(=O)OCC1CO1 (stereo not given),,,ready biodegradability: readily biodegradable
Cc1ccc(C(C)C)cc1O,1,238,
CC1CNC(=S)N1 (stereo not given),,,log10 BCF: 1
Clc1nc2ccccc2s1,24,248,

Structure (SMILES),melting point [°C],boiling point [°C],also measured
Cc1ccc(Nc2ccc(Nc3ccc(C)cc3)c3c2C(=O)c2ccccc2C3=O)cc1,218,,
Cn1cccc1,,115,log10 vapour pressure (mmHg): 1.33; ready biodegradability: readily biodegradable
O=C(O)C(Br)CBr (stereo not given),66.5,,
Fc1cccc(Br)c1,,150,
CCCCC(=O)OC(=O)CCCC,-56.1,227,
O=C(O)Cc1cn(-c2ccccc2)nc1-c1ccc(Cl)cc1,150,,
O=S(=O)(O)c1cccc(S(=O)(=O)O)c1,,,ready biodegradability: not readily biodegradable
Cc1ccc2c(-c3ccccc3)nc(=O)n(C(C)C)c2c1,138,,
CCCCC(CC)COC(=O)c1ccc(C(=O)OCC(CC)CCCC)cc1 (stereo not given),-48,383,log10 Koc (L/kg): 4.16
Clc1cc(Cl)c(Cl)c(-c2ccccc2Cl)c1,,,log10 biotransformation half-life (days): 2.8
CCc1ccc(C)o1,,118,
CCCC(O)CC/C=C/C=C/C#CC#C/C=C/CO (stereo not given),87,,
CNc1cccc(C)c1,,206,ready biodegradability: not readily biodegradable; log10 BCF: 0.86; log10 biotransformation half-life (days): -0.79
COc1cc2c(c(O)c1OC)CCN(C)[C@H]2C,152,,
CCOc1ccc(Cc2nc(C)cc3cc(OC)c(OC)cc23)cc1OC,124,,
Brc1cc(Br)c(Oc2cc(Br)c(Br)cc2Br)c(Br)c1,,,logP: 7.82; log10 BCF: 6.15; log10 biotransformation half-life (days): 2.03
Cc1ccc2[nH]c3ccccc3c2c1,208,365,
C/C=C/C#N,-51.5,,
Fc1cc(F)c(F)cc1F,4.5,90.2,log10 vapour pressure (mmHg): 1.75
O=c1oc2ccccc2c(O)c1C(CC(O)c1ccc(Cl)cc1)c1ccc(Cl)s1 (stereo not given),104,,
C#CCOc1cc(-n2nc(C(C)(C)C)oc2=O)c(Cl)cc1Cl,131,,log10 vapour pressure (mmHg): -7.73
CCCCCc1ccc2c(c1)C(=O)c1ccccc1C2=O,,,ready biodegradability: not readily biodegradable; log10 BCF: 2.94; log10 biotransformation half-life (days): 0.2
Nc1cc(Cl)c(Cl)c(Cl)c1,99,,log10 BCF: 2.36; log10 biotransformation half-life (days): 0.28
C=CCCCCCCCCC(=O)O,24.5,275,log10 vapour pressure (mmHg): -3.03

Structure (SMILES),melting point [°C],boiling point [°C],also measured
C[C@H](N)CCc1ccccc1,143,223,
C=CCCCCCCCCCCCCCCCCC,23,329,log10 vapour pressure (mmHg): -4.42
CC(C)(C#N)Nc1nc(Cl)nc(NC2CC2)n1,170,,
BrC/C=C/CBr,53.4,203,
C=C(Cl)C(C)Cl (stereo not given),,112,
c1cc2ccc3cccc4ccc(c1)c2c34,151,404,log10 Henry constant (atm·m³/mol): -4.92; log10 Koa: 8.8; log10 Koc (L/kg): 4.9; log10 biodegradation half-life (days): 2.37; log10 vapour pressure (mmHg): -5.35; log10 BCF: 3.18; log10 biotransformation half-life (days): 0.32
CC(C)CCOC(=O)OCCC(C)C,,234,
CCC1(C2=C[C@H]3CC[C@@H](C2)C3)C(=O)NC(=O)NC1=O,213,,
CP(=O)(c1ccccc1)c1ccccc1,113,,
c1ccc2c(c1)ccc1c2ccc2c3ccccc3ccc21,368,519,
Nc1ccc(I)cc1,67.5,,
S=c1sc2nc3ccccc3nc2s1,180,,
CC1=CCCC=C1,,108,
COc1cc(OC)cc(O[C@H]2O[C@H](CO)[C@@H](O)[C@H](O)[C@H]2O)c1,170,,
CN1C(=O)C(=O)c2ccccc21,132,,
Cc1cc(Cl)[nH]n1,118,258,
C[Si](Cl)(Cl)c1ccccc1,,206,log10 vapour pressure (mmHg): -0.312
CC(C)(c1ccccc1)c1ccc(O)cc1,75,335,log10 vapour pressure (mmHg): -4.23; ready biodegradability: not readily biodegradable
COc1c(N)cccc1[N+](=O)[O-],,,ready biodegradability: not readily biodegradable
COc1ccccc1N=Nc1ccccc1,41,,
COc1cccc(-c2cccc(OC)c2)c1,36,328,
C=C1COC2(OCCCO2)OC1,,,ready biodegradability: not readily biodegradable
CCc1cnccn1,,152,log10 Henry constant (atm·m³/mol): -5.61
FC(F)(F)C(F)(Cl)C(Cl)(Cl)C(F)(F)F (stereo not given),4,98,

Structure (SMILES),melting point [°C],boiling point [°C],also measured
SC1CCCCC1,,159,log10 vapour pressure (mmHg): 0.598
C[C@H]1CC(=O)C[C@@H]2CC[C@H]3[C@@H]4CC[C@H](O)[C@@]4(C)CC[C@@H]3[C@]21C,204,,
O=C1c2ccccc2C(=O)N1SC(F)(Cl)Cl,,,ready biodegradability: not readily biodegradable
COc1cc(CC(=O)O)ccc1O,144,,
CC(C)CC(C)O (stereo not given),-90,132,log10 Henry constant (atm·m³/mol): -4.35; log10 vapour pressure (mmHg): 0.724; ready biodegradability: readily biodegradable
BrCc1ccccc1Br,31,,
C=CCOC(C)=O,,104,log10 vapour pressure (mmHg): 1.43
Clc1ccc2c(c1)Oc1cc(Cl)c(Cl)c(Cl)c1O2,172,,log10 Henry constant (atm·m³/mol): -5.12; log10 vapour pressure (mmHg): -8.12
FC(F)=C(F)C(F)(F)C(F)(F)C(F)(F)C(F)(F)F,,57,
O=C(O)CCCCCCCCCCCCCCC(=O)O,,,ready biodegradability: readily biodegradable
NC(=O)Nc1cccc(F)c1,,,log10 Koc (L/kg): 1.77
C=CCC1CCCCC1,,132,
CCN(Cc1ccc(Cl)nc1)/C(=C/[N+](=O)[O-])NC,,,log10 vapour pressure (mmHg): -11.1
CCCCOCC(C)C,,151,
COc1cc(NS(=O)(=O)c2ccc(N)cc2)nc(OC)n1,204,,
CCOP(=S)(OCC)Oc1nc(Cl)c(Cl)cc1Cl,42,,log10 Henry constant (atm·m³/mol): -5.53; log10 Koc (L/kg): 3.7; log10 vapour pressure (mmHg): -4.69; ready biodegradability: not readily biodegradable; log10 BCF: 3.18; log10 biotransformation half-life (days): 0.77
NC(=O)Nc1cccc2ccccc12,220,,
O=NN([O-])c1ccccc1.[NH4+],164,,
O=Cc1cccc(Cl)c1,17.5,214,
CCCCCCCCCCCC1CCCC1,-10,296,
O=c1ccocc1,32.5,212,
CCCCOCCOC(=O)COc1ccc(Cl)cc1Cl,,,log10 vapour pressure (mmHg): -5.35
CC(C)C(=O)OCC(C)(C)C(O)C(C)C (stereo not given),,,ready biodegradability: readily biodegradable
CC[C@@](C)(O)C(=O)O,74,,

Structure (SMILES),melting point [°C],boiling point [°C],also measured
O=CNc1ccccc1,46,271,log10 vapour pressure (mmHg): -2.45
N=C(N)NC(=O)Cc1c(Cl)cccc1Cl,226,,
CCC(=O)CC(C)=O,,160,
C=CC(C)C(C)C (stereo not given),,80.8,
CN(C)c1ccccc1[N+](=O)[O-],-20,,
CC(C)=CCC/C(C)=C/C=C/C(C)=C/C=C/C(C)=C/C=C/C=C(C)/C=C/C=C(C)/C=C/C1C(C)=CCCC1(C)C (stereo not given),140,,
N#CC=Cc1ccco1,38,,
C=C(CC)CC,-132,64.7,log10 vapour pressure (mmHg): 2.24
N#CC(Br)c1ccccc1 (stereo not given),29,,
CC(=O)c1ccc(OCC(=O)O)cc1,176,,
CC(C)(c1ccc(OCCO)cc1)c1ccc(OCCO)cc1,,,ready biodegradability: not readily biodegradable
COc1ccc(N=[N+]([O-])c2ccc(OC)cc2)cc1,127,,
CCCCCCCCCCCCCCCCCC(=O)OCC(O)[C@H]1OC[C@@H](O)[C@@H]1O (stereo not given in full),,,ready biodegradability: readily biodegradable
CCC(Br)(CC)C(N)=O,67,,
C=COC,-122,5.5,log10 vapour pressure (mmHg): 3.12
CCCCc1ccc(C=O)cc1,,,ready biodegradability: not readily biodegradable
CCC1CO1 (stereo not given),,63.3,log10 vapour pressure (mmHg): 2.26; ready biodegradability: readily biodegradable
CCC(C)c1cc([N+](=O)[O-])cc([N+](=O)[O-])c1OC(=O)C=C(C)C (stereo not given),70,,log10 vapour pressure (mmHg): -6.5
Nc1ccc(C(=O)O)cn1,312,,
CCCN(CCOc1c(Cl)cc(Cl)cc1Cl)C(=O)n1ccnc1,48,,log10 Koc (L/kg): 2.7; log10 vapour pressure (mmHg): -5.95
CCSCCO,-100,184,
Oc1ccc2ccc3cccc4ccc1c2c34,180,,log10 vapour pressure (mmHg): -8.32
NC(=O)NC(=O)Cc1ccccc1,215,,
